# Assay results reported in ChEMBL document CHEMBL3885861, “Open TG-GATES”.
# Species: Rattus norvegicus
# Experiment: Open TG-GATES - Regimen: Daily Repeat
# Format: toxicity, organism-based, Sprague-Dawley
# Parameters: regimen Daily Repeat, gender Male, age 6 weeks
# Conditions: in vivo, po, route gavage; for Eos / Fbg / Ht / Lym / MCHC / MCV / Mono / Neu / RBC / Ret / WBC / APTT / Bas / PT / Hb: tissue Blood; for KIDNEY_L / KIDNEY_R / KIDNEY_TOTAL: tissue Kidney; for ALP / ALT / AST / BUN / CRE / Ca / Cl / DBIL / GLC / IP / K / PL / RALB / TBIL / TC / TG / TP / gamma-GTP: tissue Plasma
# [1] = 60 mg/kg, 72 h, dose level Middle, time 3 day
# [2] = 60 mg/kg, […], dose level Middle, time 7 day
# [3] = 60 mg/kg, […], dose level Middle, time 14 day
# [4] = 60 mg/kg, […], dose level Middle, time 28 day
# [5] = 200 mg/kg, 72 h, dose level High, time 3 day
# [6] = 200 mg/kg, […], dose level High, time 7 day
# [7] = 200 mg/kg, […], dose level High, time 14 day
# [8] = 200 mg/kg, […], dose level High, time 28 day
compound,measurement,setting,value
CCCCC1C(=O)N(c2ccccc2)N(c2ccccc2)C1=O [PHENYLBUTAZONE],Eos,[1],1.2%
same,Fbg,[1],234.2 mg/dL
same,Ht,[1],42.3%
same,Lym,[1],76.2%
same,MCHC,[1],33.5%
same,MCV,[1],63.4 fL
same,Mono,[1],6.4%
same,Neu,[1],16.4%
same,RBC,[1],667.4 x10_4/ul
same,Ret,[1],6.7%
same,WBC,[1],119.1 x10_2/uL
same,KIDNEY_L,[1],1 g
same,KIDNEY_R,[1],1 g
same,KIDNEY_TOTAL,[1],2 g
same,ALP,[1],957.4 IU/L
same,ALT,[1],35.6 IU/L
same,AST,[1],57.6 IU/L
same,BUN,[1],18.4 mg/dL
same,CRE,[1],0.6 mg/dL
same,Ca,[1],10.5 mg/dL
same,Cl,[1],105.6 meq/L
same,DBIL,[1],0.006 mg/dL
same,GLC,[1],199.4 mg/dL
same,IP,[1],7.9 mg/dL
same,K,[1],4.7 meq/L
same,PL,[1],167.6 mg/dL
same,RALB,[1],4 g/dL
same,TBIL,[1],0.3 mg/dL
same,TC,[1],92 mg/dL
same,TG,[1],136.8 mg/dL
same,TP,[1],6.1 g/dL
same,gamma-GTP,[1],1 IU/L
same,TERMINAL_BW,[2],272.5 g
same,TERMINAL_BW,[3],313.9 g
same,TERMINAL_BW,[4],407.1 g
same,APTT,[2],16.2 s
same,Bas,[2],0%
same,Eos,[2],0.4%
same,Fbg,[2],231 mg/dL
same,Ht,[2],42.2%
same,Lym,[2],86.2%
same,MCHC,[2],33.6%
same,MCV,[2],64.2 fL
same,Mono,[2],4.2%
same,Neu,[2],9%
same,PT,[2],11.7 s
same,RBC,[2],657.4 x10_4/ul
same,Ret,[2],5.4%
same,WBC,[2],186.6 x10_2/uL
same,APTT,[3],16.5 s
same,Bas,[3],0%
same,Eos,[3],0.6%
same,Fbg,[3],227.6 mg/dL
same,Hb,[3],14.9 g/dL
same,Ht,[3],44.5%
same,Lym,[3],86%
same,MCHC,[3],33.5%
same,MCV,[3],60.4 fL
same,Mono,[3],4%
same,Neu,[3],9.4%
same,RBC,[3],736.4 x10_4/ul
same,Ret,[3],4.4%
same,WBC,[3],167.1 x10_2/uL
same,APTT,[4],15.9 s
same,Bas,[4],0%
same,Eos,[4],0.6%
same,Fbg,[4],246.5 mg/dL
same,Hb,[4],15.3 g/dL
same,Ht,[4],45.9%
same,Lym,[4],86%
same,MCHC,[4],33.4%
same,MCV,[4],58.4 fL
same,Mono,[4],3%
same,RBC,[4],786.6 x10_4/ul
same,Ret,[4],2.6%
same,WBC,[4],129.4 x10_2/uL
same,KIDNEY_L,[2],1.1 g
same,KIDNEY_R,[2],1.1 g
same,KIDNEY_TOTAL,[2],2.2 g
same,KIDNEY_L,[3],1.3 g
same,KIDNEY_R,[3],1.3 g
same,KIDNEY_TOTAL,[3],2.6 g
same,KIDNEY_L,[4],1.4 g
same,KIDNEY_R,[4],1.4 g
same,KIDNEY_TOTAL,[4],2.9 g
same,ALP,[2],845.8 IU/L
same,ALT,[2],37.4 IU/L
same,AST,[2],65 IU/L
same,BUN,[2],20.8 mg/dL
same,CRE,[2],0.5 mg/dL
same,Ca,[2],10.7 mg/dL
same,Cl,[2],106.6 meq/L
same,DBIL,[2],0 mg/dL
same,GLC,[2],195.8 mg/dL
same,IP,[2],8.5 mg/dL
same,K,[2],5 meq/L
same,PL,[2],161 mg/dL
same,RALB,[2],4 g/dL
same,TBIL,[2],0.3 mg/dL
same,TC,[2],79 mg/dL
same,TG,[2],166.8 mg/dL
same,TP,[2],6.7 g/dL
same,gamma-GTP,[2],1.4 IU/L
same,ALP,[3],877.8 IU/L
same,ALT,[3],36.4 IU/L
same,AST,[3],65 IU/L
same,BUN,[3],20.8 mg/dL
same,CRE,[3],0.6 mg/dL
same,Ca,[3],10.6 mg/dL
same,Cl,[3],107 meq/L
same,DBIL,[3],0.002 mg/dL
same,GLC,[3],189.4 mg/dL
same,IP,[3],8.3 mg/dL
same,K,[3],4.5 meq/L
same,RALB,[3],4 g/dL
same,TBIL,[3],0.3 mg/dL
same,TC,[3],64 mg/dL
same,TG,[3],138 mg/dL
same,TP,[3],6.3 g/dL
same,gamma-GTP,[3],1.8 IU/L
same,ALP,[4],605.8 IU/L
same,ALT,[4],44.2 IU/L
same,AST,[4],70.8 IU/L
same,BUN,[4],22.2 mg/dL
same,CRE,[4],0.6 mg/dL
same,Ca,[4],10.7 mg/dL
same,Cl,[4],105.2 meq/L
same,DBIL,[4],0.006 mg/dL
same,GLC,[4],189.8 mg/dL
same,IP,[4],7.7 mg/dL
same,K,[4],4.6 meq/L
same,PL,[4],161.8 mg/dL
same,RALB,[4],4.3 g/dL
same,TBIL,[4],0.4 mg/dL
same,TC,[4],76.4 mg/dL
same,TG,[4],280.8 mg/dL
same,TP,[4],6.8 g/dL
same,gamma-GTP,[4],1.2 IU/L
same,TERMINAL_BW,[5],224.8 g
same,APTT,[5],17.7 s
same,Bas,[5],0%
same,Eos,[5],1%
same,Fbg,[5],309.8 mg/dL
same,Hb,[5],12.5 g/dL
same,Ht,[5],37.3%
same,Lym,[5],74.4%
same,MCHC,[5],33.5%
same,MCV,[5],63.9 fL
same,Mono,[5],9.4%
same,Neu,[5],15.8%
same,PT,[5],11.7 s
same,RBC,[5],586.8 x10_4/ul
same,Ret,[5],8.1%
same,WBC,[5],200.4 x10_2/uL
same,KIDNEY_L,[5],1.1 g
same,KIDNEY_R,[5],1.1 g
same,KIDNEY_TOTAL,[5],2.2 g
same,ALP,[5],627.8 IU/L
same,ALT,[5],27 IU/L
same,AST,[5],55.2 IU/L
same,BUN,[5],20.4 mg/dL
same,CRE,[5],0.6 mg/dL
same,Ca,[5],10.2 mg/dL
same,Cl,[5],106 meq/L
same,DBIL,[5],0 mg/dL
same,GLC,[5],189.2 mg/dL
same,IP,[5],7 mg/dL
same,K,[5],5.1 meq/L
same,RALB,[5],3.3 g/dL
same,TBIL,[5],0.2 mg/dL
same,TC,[5],81.8 mg/dL
same,TG,[5],168.6 mg/dL
same,TP,[5],5.8 g/dL
same,gamma-GTP,[5],2.2 IU/L
same,TERMINAL_BW,[6],254.1 g
same,TERMINAL_BW,[7],296 g
same,TERMINAL_BW,[8],348.8 g
same,APTT,[6],17.1 s
same,Bas,[6],0%
same,Eos,[6],1%
same,Fbg,[6],250 mg/dL
same,Hb,[6],13.4 g/dL
same,Ht,[6],40.3%
same,Lym,[6],77%
same,MCHC,[6],33.4%
same,MCV,[6],63.9 fL
same,Mono,[6],4.6%
same,Neu,[6],17.6%
same,PT,[6],11.7 s
same,RBC,[6],631.8 x10_4/ul
same,Ret,[6],7.4%
same,WBC,[6],199.8 x10_2/uL
same,APTT,[7],17.5 s
same,Bas,[7],0%
same,Eos,[7],0.4%
same,Fbg,[7],257.2 mg/dL
same,Hb,[7],13.8 g/dL
same,Ht,[7],41.2%
same,Lym,[7],78.8%
same,MCHC,[7],33.4%
same,MCV,[7],59.6 fL
same,Mono,[7],4.4%
same,Neu,[7],16.2%
same,RBC,[7],692.2 x10_4/ul
same,Ret,[7],5.8%
same,WBC,[7],162.2 x10_2/uL
same,APTT,[8],15.6 s
same,Bas,[8],0%
same,Eos,[8],0.4%
same,Fbg,[8],273 mg/dL
same,Hb,[8],13.3 g/dL
same,Ht,[8],39.7%
same,Lym,[8],76%
same,MCHC,[8],33.4%
same,MCV,[8],58 fL
same,Mono,[8],3%
same,Neu,[8],20.4%
same,RBC,[8],684.8 x10_4/ul
same,Ret,[8],6.4%
same,WBC,[8],184.3 x10_2/uL
same,KIDNEY_L,[6],1.1 g
same,KIDNEY_R,[6],1.1 g
same,KIDNEY_TOTAL,[6],2.2 g
same,KIDNEY_L,[7],1.2 g
same,KIDNEY_R,[7],1.2 g
same,KIDNEY_TOTAL,[7],2.4 g
same,KIDNEY_L,[8],1.4 g
same,KIDNEY_R,[8],1.5 g
same,KIDNEY_TOTAL,[8],2.9 g
same,ALP,[6],763 IU/L
same,ALT,[6],32 IU/L
same,AST,[6],57.4 IU/L
same,BUN,[6],20.2 mg/dL
same,CRE,[6],0.6 mg/dL
same,Ca,[6],10.7 mg/dL
same,Cl,[6],105 meq/L
same,DBIL,[6],0 mg/dL
same,GLC,[6],201 mg/dL
same,IP,[6],8.4 mg/dL
same,K,[6],4.8 meq/L
same,RALB,[6],3.9 g/dL
same,TBIL,[6],0.3 mg/dL
same,TC,[6],75.4 mg/dL
same,TG,[6],113.8 mg/dL
same,TP,[6],6.6 g/dL
same,gamma-GTP,[6],2.8 IU/L
same,ALP,[7],719.2 IU/L
same,ALT,[7],30.4 IU/L
same,AST,[7],63 IU/L
same,BUN,[7],26.6 mg/dL
same,CRE,[7],0.6 mg/dL
same,Ca,[7],10.7 mg/dL
same,Cl,[7],106.2 meq/L
same,DBIL,[7],0.008 mg/dL
same,GLC,[7],184.6 mg/dL
same,IP,[7],8.4 mg/dL
same,K,[7],4.3 meq/L
same,RALB,[7],3.9 g/dL
same,TBIL,[7],0.4 mg/dL
same,TC,[7],69.6 mg/dL
same,TG,[7],147.6 mg/dL
same,TP,[7],6.4 g/dL
same,gamma-GTP,[7],1.2 IU/L
same,ALP,[8],413 IU/L
same,ALT,[8],28.2 IU/L
same,AST,[8],57.2 IU/L
same,BUN,[8],24.2 mg/dL
same,CRE,[8],0.6 mg/dL
same,Ca,[8],10.5 mg/dL
same,Cl,[8],106.8 meq/L
same,DBIL,[8],0.02 mg/dL
same,GLC,[8],174.2 mg/dL
same,IP,[8],7.4 mg/dL
same,K,[8],4.4 meq/L
same,RALB,[8],3.9 g/dL
same,TBIL,[8],0.3 mg/dL
same,TC,[8],72.2 mg/dL
same,TG,[8],166.2 mg/dL
same,TP,[8],6.1 g/dL
same,gamma-GTP,[8],1.8 IU/L
